Values quoted from earlier work, collected in patent US20080187561A1, “Enteric Coated Didanosine Compositions Having A Subcoat” (priority 2007, published 2008).

Settings: pH<3, 37° C., acidic solution

Time in which 10% of didanosine decomposes to hypoxanthine: less than 2 minutes
SMILES: OC[C@@H]1CC[C@H](n2cnc3c(O)ncnc32)O1 [didanosine, 2′,3′-dideoxyinosine]
